Several values for one entry are separate records, joined by “and”; a condition that tells them apart may be missing. Equal entries are not always repeated. Inconclusive results and toxic doses are left out. The calls were made as follows: active = survival T/C of 150% or more; inactive = T/C below 125% in these data.
System: CD2F1 mice, L1210 leukemia ip, survival T/C
Experiment: NCI In Vivo Anticancer Drug Screen. Data for tumor model L1210 Leukemia (intraperitoneal) in CD2F1 (CDF1) mice
Details: higher = longer survival
Method in brief: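 Tumor-bearing mice (transplanted tumor) were split into treated and vehicle control groups, and the measured endpoint of each treated group was divided by that of its vehicle controls.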

[1] = endpoint: mean survival time, dose: 100.0 mg/kg/injection, schedule: Q01DX009 (ip), vehicle: saline
[2] = endpoint: mean survival time, dose: 200.0 mg/kg/injection, schedule: Q01DX009 (ip), vehicle: saline
[3] = endpoint: mean survival time, dose: 400.0 mg/kg/injection, schedule: Q01DX009 (ip), vehicle: saline
[4] = endpoint: mean survival time, dose: 100.0 mg/kg/injection, schedule: Q04DX003 (ip), vehicle: saline with Tween-80
[5] = endpoint: mean survival time, dose: 100.0 mg/kg/injection, schedule: Q01DX009 (ip), vehicle: saline with Tween-80
[6] = endpoint: mean survival time, dose: 200.0 mg/kg/injection, schedule: Q01DX009 (ip), vehicle: saline with Tween-80
[7] = endpoint: mean survival time, dose: 200.0 mg/kg/injection, schedule: Q04DX003 (ip), vehicle: saline with Tween-80
[8] = endpoint: mean survival time, dose: 400.0 mg/kg/injection, schedule: Q01DX009 (ip), vehicle: saline with Tween-80
[9] = endpoint: mean survival time, dose: 400.0 mg/kg/injection, schedule: Q04DX003 (ip), vehicle: saline with Tween-80
[10] = endpoint: mean survival time, dose: 50.0 mg/kg/injection, schedule: Q04DX002 (ip), vehicle: saline with Tween-80
[11] = endpoint: mean survival time, dose: 200.0 mg/kg/injection, schedule: Q04DX002 (ip), vehicle: saline with Tween-80
[12] = endpoint: mean survival time, dose: 400.0 mg/kg/injection, schedule: Q04DX002 (ip), vehicle: saline with Tween-80

Measured: T/C

Nc1nc2ccc(CSc3ccc(C(=O)NC(CCC(=O)O)C(=O)O)cc3)nc2c(=O)[nH]1 (stereo unspecified)
inactive: endpoint: mean survival time, dose: 0.5 mg/kg/injection, schedule: Q01DX005 (ip), vehicle: sodium bicarbonate 103 % of control and 106 % of control | endpoint: mean survival time, dose: 1.0 mg/kg/injection, schedule: Q01DX005 (ip), vehicle: sodium bicarbonate 97 % of control and 106 % of control | endpoint: mean survival time, dose: 2.0 mg/kg/injection, schedule: Q01DX005 (ip), vehicle: sodium bicarbonate 97 % of control and 108 % of control | endpoint: mean survival time, dose: 4.0 mg/kg/injection, schedule: Q01DX005 (ip), vehicle: sodium bicarbonate 101 % of control and 106 % of control | endpoint: mean survival time, dose: 8.0 mg/kg/injection, schedule: Q01DX005 (ip), vehicle: sodium bicarbonate 97 % of control and 108 % of control | endpoint: mean survival time, dose: 16.0 mg/kg/injection, schedule: Q01DX005 (ip), vehicle: sodium bicarbonate 102 % of control and 103 % of control

C(CCSC1=NCCN1)CCSC1=NCCN1
inactive: endpoint: mean survival time, dose: 25.0 mg/kg/injection, schedule: Q01DX009 (ip), vehicle: saline 97 % of control | endpoint: mean survival time, dose: 50.0 mg/kg/injection, schedule: Q01DX009 (ip), vehicle: saline 103 % of control | [1] 100 % of control

CCN=C(NCC)S(=O)O
inactive: [1] 90 % of control | [2] 97 % of control | [3] 103 % of control

CC1(C)CC(=O)C2(C)C(C1O)C2C1C2C(O)C(C)(C)CC(=O)C21C (stereo unspecified)
inactive: endpoint: mean survival time, dose: 75.0 mg/kg/injection, schedule: Q01DX001 (ip), vehicle: other 96 % of control | endpoint: mean survival time, dose: 150.0 mg/kg/injection, schedule: Q01DX001 (ip), vehicle: other 94 % of control | endpoint: mean survival time, dose: 300.0 mg/kg/injection, schedule: Q01DX001 (ip), vehicle: other 91 % of control

S=C(Nc1ccc(Cl)cc1)Nc1ccc(Cc2ccc(NC(=S)Nc3ccc(Cl)cc3)cc2)cc1
inactive: endpoint: mean survival time, dose: 100.0 mg/kg/injection, schedule: Q01DX001 (ip), vehicle: Klucel (hydroxypropylcellulose) (HPC) 93 % of control | endpoint: mean survival time, dose: 200.0 mg/kg/injection, schedule: Q01DX001 (ip), vehicle: Klucel (hydroxypropylcellulose) (HPC) 92 % of control | endpoint: mean survival time, dose: 400.0 mg/kg/injection, schedule: Q01DX001 (ip), vehicle: Klucel (hydroxypropylcellulose) (HPC) 93 % of control

CC1NC=NC1C(c1ccccc1)c1ccccc1 (stereo unspecified)
inactive: endpoint: mean survival time, dose: 25.0 mg/kg/injection, schedule: Q04DX003 (ip), vehicle: saline with Tween-80 102 % of control | endpoint: mean survival time, dose: 50.0 mg/kg/injection, schedule: Q04DX003 (ip), vehicle: saline with Tween-80 109 % of control | [4] 101 % of control

c1ccc2c(c1)Sc1cnccc1N2CC1CO1 (stereo unspecified)
inactive: [1] 102 % of control | [2] 102 % of control | [3] 104 % of control

C=CCc1nc2c(N)ncnc2n1C1OC(CO)C(O)C1O (stereo unspecified)
inactive: endpoint: median survival time, dose: 12.5 mg/kg/injection, schedule: Q01DX005 (ip), vehicle: water 105 % of control | endpoint: median survival time, dose: 25.0 mg/kg/injection, schedule: Q01DX005 (ip), vehicle: water 104 % of control | endpoint: median survival time, dose: 50.0 mg/kg/injection, schedule: Q01DX005 (ip), vehicle: water 102 % of control | endpoint: median survival time, dose: 100.0 mg/kg/injection, schedule: Q01DX005 (ip), vehicle: water 102 % of control | endpoint: median survival time, dose: 200.0 mg/kg/injection, schedule: Q01DX005 (ip), vehicle: water 104 % of control

Cc1ccc([N+](=O)[O-])cc1NC(=O)Oc1ccc(Cl)cc1
inactive: [5] 98 % of control | [4] 92 % of control | [6] 98 % of control | [7] 95 % of control | [8] 91 % of control | [9] 88 % of control

NNC(=O)C(N)Cc1cnc[nH]1 (stereo unspecified)
inactive: [10] 100 % of control | endpoint: mean survival time, dose: 100.0 mg/kg/injection, schedule: Q04DX002 (ip), vehicle: saline with Tween-80 100 % of control | [11] 122 % of control | [12] 118 % of control

[Cl][Pt+2][Cl].[NH-]Cc1cccc(F)c1.[NH-]Cc1cccc(F)c1
inactive: endpoint: mean survival time, dose: 12.5 mg/kg/injection, schedule: Q04DX003 (ip), vehicle: distilled water + Tween-80 95 % of control | endpoint: mean survival time, dose: 25.0 mg/kg/injection, schedule: Q04DX003 (ip), vehicle: distilled water + Tween-80 95 % of control | endpoint: mean survival time, dose: 50.0 mg/kg/injection, schedule: Q04DX003 (ip), vehicle: distilled water + Tween-80 95 % of control | endpoint: mean survival time, dose: 100.0 mg/kg/injection, schedule: Q04DX003 (ip), vehicle: distilled water + Tween-80 100 % of control | endpoint: mean survival time, dose: 200.0 mg/kg/injection, schedule: Q04DX003 (ip), vehicle: distilled water + Tween-80 100 % of control

COc1ccc(NC(=O)Nc2ccccc2C)c(OC)c1
inactive: endpoint: mean survival time, dose: 25.0 mg/kg/injection, schedule: Q04DX002 (ip), vehicle: saline with Tween-80 88 % of control | [10] 88 % of control | [11] 90 % of control | [12] 90 % of control

CC(C)CC1(C(C)C)C(=O)NC(=S)NC1=O
inactive: endpoint: mean survival time, dose: 5.0 mg/kg/injection, schedule: Q01DX001 (ip), vehicle: saline 102 % of control | endpoint: mean survival time, dose: 10.0 mg/kg/injection, schedule: Q01DX001 (ip), vehicle: saline 96 % of control | endpoint: mean survival time, dose: 20.0 mg/kg/injection, schedule: Q01DX001 (ip), vehicle: saline 98 % of control | endpoint: mean survival time, dose: 40.0 mg/kg/injection, schedule: Q01DX001 (ip), vehicle: saline 101 % of control

CC(C)(C)C(=O)CC(=O)C(C)(C)C.CC(C)(C)C(=O)CC(=O)C(C)(C)C.CC(C)(C)C(=O)CC(=O)C(C)(C)C.[Fe]
inactive: [5] 98 % of control | [4] 100 % of control | [6] 97 % of control | [7] 96 % of control | [8] 95 % of control | [9] 91 % of control

Nc1cccc2c1C(=O)c1ccccc1C2=O
inactive: endpoint: mean survival time, dose: 100.0 mg/kg/injection, schedule: Q04DX003 (ip), vehicle: other 97 % of control | endpoint: mean survival time, dose: 200.0 mg/kg/injection, schedule: Q04DX003 (ip), vehicle: other 92 % of control | endpoint: mean survival time, dose: 400.0 mg/kg/injection, schedule: Q04DX003 (ip), vehicle: other 95 % of control

CCc1ccccc1OCC1CO1 (stereo unspecified)
inactive: endpoint: mean survival time, dose: 100.0 mg/kg/injection, schedule: Q01DX001 (ip), vehicle: saline 102 % of control | endpoint: mean survival time, dose: 200.0 mg/kg/injection, schedule: Q01DX001 (ip), vehicle: saline 100 % of control | endpoint: mean survival time, dose: 400.0 mg/kg/injection, schedule: Q01DX001 (ip), vehicle: saline 102 % of control

c1ccc2c(c1)ccc1c3ccccc3[nH]c21
inactive: endpoint: mean survival time, dose: 100.0 mg/kg/injection, schedule: Q01DX009 (ip), vehicle: other 94 % of control | endpoint: mean survival time, dose: 200.0 mg/kg/injection, schedule: Q01DX009 (ip), vehicle: other 97 % of control | endpoint: mean survival time, dose: 400.0 mg/kg/injection, schedule: Q01DX009 (ip), vehicle: other 96 % of control

COc1cccc(CNc2ncnc3nc[nH]c23)c1
inactive: [4] 92 % of control | [7] 91 % of control | [9] 97 % of control

CC(C)(C[NH-])C[NH-].[Cl][Pt+2][Cl]
inactive: endpoint: median survival time, dose: 0.2 mg/kg/injection, schedule: Q04DX003 (ip), vehicle: water 118 % of control and 110 % of control and 111 % of control

CC12CCC(=O)C=C1CCC1C2C(=O)CC2(C)C1CCC2(O)C(=O)Cn1c(=O)[nH]cc(F)c1=O (stereo unspecified)
inactive: endpoint: mean survival time, dose: 12.5 mg/kg/injection, schedule: Q04DX003 (ip), vehicle: Klucel (hydroxypropylcellulose) (HPC) 103 % of control | endpoint: mean survival time, dose: 25.0 mg/kg/injection, schedule: Q04DX003 (ip), vehicle: Klucel (hydroxypropylcellulose) (HPC) 97 % of control | endpoint: mean survival time, dose: 50.0 mg/kg/injection, schedule: Q04DX003 (ip), vehicle: Klucel (hydroxypropylcellulose) (HPC) 100 % of control | endpoint: mean survival time, dose: 100.0 mg/kg/injection, schedule: Q04DX003 (ip), vehicle: Klucel (hydroxypropylcellulose) (HPC) 97 % of control | endpoint: mean survival time, dose: 200.0 mg/kg/injection, schedule: Q04DX003 (ip), vehicle: Klucel (hydroxypropylcellulose) (HPC) 97 % of control
